Values after ≈ are worked out from the molar mass of the structure shown. Where a name gives a salt, the structure may show the parent alone.
How the values were obtained:
Type in all cases: cell-based
A.f. = experiment: serial dilution test, fungistatic activity (MIC); conditions: Pilzspezies A.f.; read-out: Minimale Hemmkonzentrationen
From the text: (§1) Die erfindungemäßen Verbindungen wurden im Reihenverdünnungstest auf ihre fungistatische Wirksamkeit gegen verschiedene Pilzspezies und gegen verschiedene Bakterienstämme geprüft. Die so ermittelten minimalen Hemmkonzentrationen (MHK) sind in den folgenden Tabellen wiedergegeben: […]

C.a. = experiment: serial dilution test, fungistatic activity (MIC); conditions: Pilzspezies C.a.; read-out: Minimale Hemmkonzentrationen
From the text: as §1

C.t. = experiment: serial dilution test, fungistatic activity (MIC); conditions: Pilzspezies C.t.; read-out: Minimale Hemmkonzentrationen
From the text: as §1

M.c. = experiment: serial dilution test, fungistatic activity (MIC); conditions: Pilzspezies M.c.; read-out: Minimale Hemmkonzentrationen
From the text: as §1

S.s. = experiment: serial dilution test, fungistatic activity (MIC); conditions: Pilzspezies S.s.; read-out: Minimale Hemmkonzentrationen
From the text: as §1

T.m. = experiment: serial dilution test, fungistatic activity (MIC); conditions: Pilzspezies T.m.; read-out: Minimale Hemmkonzentrationen
From the text: as §1

T.r. = experiment: serial dilution test, fungistatic activity (MIC); conditions: Pilzspezies T.r.; read-out: Minimale Hemmkonzentrationen
From the text: as §1

Staphylococcus aureus = experiment: serial dilution test against bacterial strains (MIC); conditions: Bakterienstämme S.a. = Staphylococcus aureus; read-out: Minimale Hemmkonzentrationen
From the text: as §1

Streptococcus faecalis = experiment: as above; conditions: Enterococcus faecalis; Bakterienstämme S.f. = Streptococcus faecalis; read-out: Minimale Hemmkonzentrationen
From the text: as §1

Streptococcus pyogenes = experiment: as above; conditions: Bakterienstämme S.p. = Streptococcus pyogenes; read-out: Minimale Hemmkonzentrationen
From the text: as §1

A.c. = experiment: serial dilution test, fungistatic activity (MIC); conditions: Pilzspezies A.c.; read-out: Minimale Hemmkonzentrationen
From the text: as §1

| Structure (SMILES) | MIC (A.f.) [µg/mL] | MIC (C.a.) [µg/mL] | MIC (C.t.) [µg/mL] | MIC (M.c.) [µg/mL] | MIC (S.s.) [µg/mL] | MIC (T.m.) [µg/mL] | MIC (T.r.) [µg/mL] | MIC (Staphylococcus aureus) [µg/mL] | MIC (Streptococcus faecalis) [µg/mL] | MIC (Streptococcus pyogenes) [µg/mL] | MIC (A.c.) [µg/mL] |
| --- | --- | --- | --- | --- | --- | --- | --- | --- | --- | --- | --- |
| FC(Cl)C(F)(F)Oc1ccc(COC(Cn2ccnc2)c2ccc(Cl)cc2Cl)cc1 (stereo not shown) [Verbind. VI, 1-(2,4-Dichlorphenyl)-1-(4-(2-chlor-1,1,2-trifluorethoxy)benzyloxy)-2-(1H-imidazol-1-yl)ethan-nitrat] | 1.6 (≈ 3.34 µM) | 0.05 (≈ 0.104 µM) | 1.6 (≈ 3.34 µM) | 0.2 (≈ 0.417 µM) | 0.1 (≈ 0.208 µM) | 0.8 (≈ 1.67 µM) | 0.8 (≈ 1.67 µM) |  |  |  |  |
| FC(F)(Oc1ccc(COC(Cn2ccnc2)c2ccc(Cl)cc2Cl)cc1)C(Cl)Cl (stereo not shown) [Verbind. IV, 1-(2,4-Dichlorphenyl)-1-(4-(2,2-dichlor-1,1-difluor-ethoxy)benzyloxy)-2-(1H-imidazol-1-yl)ethan-hydrochlorid] | 3.1 | 0.1 | 0.1 |  |  | 0.1 | 0.1 | 3.1 | 1.6 | < 0.2 |  |
| Clc1ccc(C(Cn2ccnc2)OCc2ccc(C3CC3(Cl)Cl)cc2)c(Cl)c1 (stereo not shown) [Verbind. III, 1-(2,4-Dichlorphenyl)-1-(4-(2,2-dichlorcyclopropyl)benzyloxy)-2-(1H-imidazol-1-yl)ethan-nitrat] | 1.6 (≈ 3.51 µM) | 0.05 (≈ 0.11 µM) | 3.1 (≈ 6.8 µM) |  | 0.2 (≈ 0.438 µM) | 0.8 (≈ 1.75 µM) | 0.8 (≈ 1.75 µM) |  |  |  |  |
| Clc1ccc(C(Cn2ccnc2)=NOCc2ccc(C3CC3(Cl)Cl)cc2)c(Cl)c1 (stereo not shown) [Verbind. II, 1-(2,4-Dichlorphenyl)-2-(1H-imidazol-1-yl)-0-(4-(2,2-di-chlorcyclopropyl)benzyl)ethanonoxim-nitrat] | 25 (≈ 53.3 µM) | 3.1 (≈ 6.61 µM) | 25 (≈ 53.3 µM) |  | 1.6 (≈ 3.41 µM) | 12.5 (≈ 26.6 µM) | 6.2 (≈ 13.2 µM) |  |  |  |  |
| FC(F)(Oc1ccc(CON=C(Cn2ccnc2)c2ccc(Cl)cc2Cl)cc1)C(Cl)Cl [Verbind. I, 1-(2,4-Dichlorphenyl)-2-(1H-imidazol-1-yl)-0-(4-(2,2-dichlor-1,1-difluorethoxy)benzyl)ethanonoxim-nitrat] | 12.5 (≈ 24.5 µM) | 0.1 (≈ 0.196 µM) | 0.8 (≈ 1.57 µM) | 3.1 (≈ 6.09 µM) |  | 6.25 (≈ 12.3 µM) | 6.25 (≈ 12.3 µM) | 6.25 (≈ 12.3 µM) | 12.5 (≈ 24.5 µM) | 0.8 (≈ 1.57 µM) | 1.6 (≈ 3.14 µM) |

Source: patent EP0158299A2, “Substituted phenylethyl derivatives, process for their preparation and pharmaceutical agents” (Merz & Co. GmbH & Co., priority 1984, dated 1985)
